We go through nine compounds from PubChem BioAssay (NCI).

Among the test systems are 786-0 renal; A498 renal; CCRF-CEM leukemia; DU-145 prostate; HOP-62 NSCLC; NCI-H226 lung; OVCAR-8 ovarian; SK-MEL-2 melanoma; TK-10 renal; HOP-92 NSCLC.
Assay in all cases: NCI anticancer screen, dose series, 48 h

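Step 1: Grow cells in 96-well plates. Step 2: Expose to compound for 48 hours at 5 concentrations. Step 3: Interpolate endpoints linearly; if unreached, use highest concentration. At the GI50, growth is halved. At the TGI there is no net growth.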

For `CC1(CCCC2(C)CCNC2=O)OCCO1` (centres undefined), the TGI in the experiment on 786-0 renal, in the experiment with A498 renal, with CCRF-CEM leukemia, in the experiment on DU-145 prostate, in the experiment with HOP-62 NSCLC and in the experiment with NCI-H226 lung was > 10 µM in each case. The TGI with OVCAR-8 ovarian, in the experiment on SK-MEL-2 melanoma and with TK-10 renal was > 10 µM each time.
In the case of `O=C(Cn1ccnc1[N+](=O)[O-])NCCO`, the TGI in the experiment with 786-0 renal, in the experiment on A498 renal, in the experiment with CCRF-CEM leukemia, in the experiment with DU-145 prostate, with HOP-62 NSCLC and in the experiment on HOP-92 NSCLC was > 100 µM in each case. The TGI with NCI-H226 lung, with OVCAR-8 ovarian, with SK-MEL-2 melanoma and in the experiment with TK-10 renal was > 100 µM throughout.
For the compound `CCc1cc(C(N)=O)ccc1-n1nc(C(C)C)c2c(-n3cnc(-c4cnn(C)c4)c3)ccnc21`, the GI50 was 5.67 µM in the experiment on 786-0 renal; 4.99 µM in the experiment with A498 renal; 0.752 µM in the experiment on CCRF-CEM leukemia; 0.604 µM in the experiment on DU-145 prostate; 7.92 µM in the experiment on HOP-62 NSCLC; 2.3 µM in the experiment with HOP-92 NSCLC. For the same compound, the GI50 is 3.68 µM in the experiment with NCI-H226 lung, 3.72 µM with OVCAR-8 ovarian, 4.41 µM with SK-MEL-2 melanoma and 1.23 µM in the experiment with TK-10 renal. Also, the TGI in the experiment on 786-0 renal was > 100 µM; with A498 renal, > 100 µM; in the experiment with CCRF-CEM leukemia, > 100 µM; in the experiment on DU-145 prostate it was > 100 µM; in the experiment on HOP-62 NSCLC it was > 100 µM; in the experiment with HOP-92 NSCLC it was 14.3 µM. Besides, the TGI with NCI-H226 lung, in the experiment on OVCAR-8 ovarian, with SK-MEL-2 melanoma and in the experiment on TK-10 renal was > 100 µM in each case.
In the case of `COc1ccc(C(=O)/C=C/c2ccc(Cl)cc2)cc1S(N)(=O)=O`, the GI50 was 1.74 µM with 786-0 renal; 10.4 µM in the experiment with A498 renal; 3.35 µM in the experiment with CCRF-CEM leukemia; 3.43 µM in the experiment on DU-145 prostate; 2.51 µM with HOP-62 NSCLC; 2.14 µM in the experiment on HOP-92 NSCLC. For the same compound, the GI50 in the experiment on NCI-H226 lung was 3.66 µM; in the experiment with OVCAR-8 ovarian it was 3.55 µM; in the experiment with SK-MEL-2 melanoma it was 12.4 µM; with TK-10 renal, 2.47 µM. Moreover, the TGI with 786-0 renal amounted to 3.69 µM; with A498 renal, 22.1 µM; in the experiment on CCRF-CEM leukemia, 9.35 µM; with DU-145 prostate, 13.2 µM; in the experiment on HOP-62 NSCLC, 8.62 µM; with HOP-92 NSCLC it was 5.78 µM. The TGI is 14.8 µM with NCI-H226 lung, 10.2 µM in the experiment on OVCAR-8 ovarian, 25.7 µM in the experiment with SK-MEL-2 melanoma and 7.81 µM in the experiment with TK-10 renal.
On to `CCN(CC)CCn1c(=N)n(CC(O)c2ccc(Cl)c(Cl)c2)c2ccccc21` (centres undefined), for which the GI50 with 786-0 renal was 10.9 µM; in the experiment on A498 renal, 3.07 µM; with DU-145 prostate it was 13.9 µM; with HOP-62 NSCLC it was 11.8 µM; in the experiment with HOP-92 NSCLC it was 2.73 µM; with NCI-H226 lung, 17 µM. Moreover, the GI50 was 12.1 µM in the experiment on OVCAR-8 ovarian, 2.93 µM with SK-MEL-2 melanoma and 14.1 µM in the experiment with TK-10 renal. The TGI with 786-0 renal was found to be 23.1 µM; in the experiment with A498 renal, 15.6 µM; with DU-145 prostate, 26.8 µM; with HOP-62 NSCLC, 24.8 µM; in the experiment with HOP-92 NSCLC it was 13.1 µM; with NCI-H226 lung, 36.9 µM. For the same compound, the results for the TGI with OVCAR-8 ovarian, in the experiment on SK-MEL-2 melanoma and in the experiment on TK-10 renal were 25.5 µM, 8.32 µM and 27.1 µM, respectively.
For the compound `CC(=O)NC1(C)CCC(C(C)(C)NC(C)=O)CC1` (centres undefined), the TGI in the experiment on 786-0 renal, in the experiment on A498 renal, with CCRF-CEM leukemia, in the experiment on DU-145 prostate, with HOP-62 NSCLC and with NCI-H226 lung was > 100 µM in each case. The TGI with OVCAR-8 ovarian and in the experiment with TK-10 renal was > 100 µM throughout.
For `Nc1nc2nc3c(nc2c(=O)[nH]1)CN(c1ccc(C(=O)O)cc1)C3=O`, the TGI is > 100 µM with 786-0 renal; > 100 µM with A498 renal; > 100 µM with DU-145 prostate; 83.7 µM with HOP-62 NSCLC; > 100 µM in the experiment on HOP-92 NSCLC; > 100 µM in the experiment with NCI-H226 lung. In addition, the TGI with OVCAR-8 ovarian, in the experiment with SK-MEL-2 melanoma and in the experiment with TK-10 renal was > 100 µM throughout.
As to `C1=C[C@@H]2c3ccc4cnccc4c3NC[C@@H]2C1`, the TGI in the experiment on 786-0 renal, in the experiment on A498 renal, in the experiment with CCRF-CEM leukemia, with DU-145 prostate, in the experiment with HOP-62 NSCLC and with HOP-92 NSCLC was > 100 µM throughout. In addition, the TGI in the experiment on NCI-H226 lung, with OVCAR-8 ovarian and in the experiment with TK-10 renal was > 100 µM in each case.
Take `COc1ccc([C@H]2c3cc(OC)c(OC)cc3C=C(C=O)C2CO)cc1OC` (some centres undefined): the GI50 with 786-0 renal was 7.15 µM; in the experiment on A498 renal, 19 µM; in the experiment with CCRF-CEM leukemia, 19 µM; with DU-145 prostate, 3.51 µM; with HOP-62 NSCLC it was 4.79 µM; with HOP-92 NSCLC, > 100 µM. Besides, the GI50 with NCI-H226 lung is > 100 µM; in the experiment on OVCAR-8 ovarian, 6.9 µM. The TGI in the experiment with 786-0 renal is > 100 µM; in the experiment on A498 renal, > 100 µM; in the experiment on CCRF-CEM leukemia, > 100 µM; with DU-145 prostate, 21.8 µM; in the experiment with HOP-62 NSCLC, > 100 µM; with HOP-92 NSCLC, > 100 µM. In addition, the TGI in the experiment with NCI-H226 lung and in the experiment with OVCAR-8 ovarian was > 100 µM each time.
